According to ChEMBL document CHEMBL5291721, “A preclinical secondary pharmacology resource illuminates target-adverse drug reaction associations of marketed drugs” (Nat Commun, 2023):

Key:
[1] = biological target: T1, Prostaglandin G/H synthase 1 (Rattus norvegicus, UniProt Q63921); assay type: functional
T1 sequence (Q63921 whole entry): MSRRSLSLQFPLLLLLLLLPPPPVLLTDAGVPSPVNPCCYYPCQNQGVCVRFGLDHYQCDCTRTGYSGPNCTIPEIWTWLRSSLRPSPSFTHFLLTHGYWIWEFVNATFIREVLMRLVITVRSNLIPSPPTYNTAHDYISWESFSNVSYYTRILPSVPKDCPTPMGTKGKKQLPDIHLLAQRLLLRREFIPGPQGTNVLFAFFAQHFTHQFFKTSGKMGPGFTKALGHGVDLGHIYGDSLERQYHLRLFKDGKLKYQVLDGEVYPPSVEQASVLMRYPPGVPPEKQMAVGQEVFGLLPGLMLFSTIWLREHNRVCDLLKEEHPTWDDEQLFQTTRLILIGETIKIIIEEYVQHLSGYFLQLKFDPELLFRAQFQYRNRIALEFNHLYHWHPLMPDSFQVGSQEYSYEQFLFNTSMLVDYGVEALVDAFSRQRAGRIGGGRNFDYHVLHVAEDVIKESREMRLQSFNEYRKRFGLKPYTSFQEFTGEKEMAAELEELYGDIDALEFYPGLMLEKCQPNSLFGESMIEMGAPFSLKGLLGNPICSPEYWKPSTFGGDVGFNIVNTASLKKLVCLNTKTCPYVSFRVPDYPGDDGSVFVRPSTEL

[2] = biological target: T2, Neuropeptide Y receptor type 1 (Homo sapiens, UniProt P25929); settings: read-out: AC50
T2 sequence (P25929 whole entry): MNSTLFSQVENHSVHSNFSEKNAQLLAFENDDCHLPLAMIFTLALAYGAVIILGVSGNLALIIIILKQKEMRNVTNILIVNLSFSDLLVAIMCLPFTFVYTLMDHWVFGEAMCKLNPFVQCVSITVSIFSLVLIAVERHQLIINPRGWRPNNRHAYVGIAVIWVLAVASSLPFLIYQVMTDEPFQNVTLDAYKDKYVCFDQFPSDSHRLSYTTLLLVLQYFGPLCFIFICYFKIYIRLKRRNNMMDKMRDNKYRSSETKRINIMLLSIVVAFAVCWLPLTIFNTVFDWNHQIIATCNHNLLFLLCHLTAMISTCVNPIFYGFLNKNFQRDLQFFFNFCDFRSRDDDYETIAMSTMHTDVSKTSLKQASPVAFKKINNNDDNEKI

Histamine H2 receptor = Histamine H2 receptor (Homo sapiens, UniProt P25021); assay type: functional, cell-based
Sequence of Histamine H2 receptor (P25021 whole entry): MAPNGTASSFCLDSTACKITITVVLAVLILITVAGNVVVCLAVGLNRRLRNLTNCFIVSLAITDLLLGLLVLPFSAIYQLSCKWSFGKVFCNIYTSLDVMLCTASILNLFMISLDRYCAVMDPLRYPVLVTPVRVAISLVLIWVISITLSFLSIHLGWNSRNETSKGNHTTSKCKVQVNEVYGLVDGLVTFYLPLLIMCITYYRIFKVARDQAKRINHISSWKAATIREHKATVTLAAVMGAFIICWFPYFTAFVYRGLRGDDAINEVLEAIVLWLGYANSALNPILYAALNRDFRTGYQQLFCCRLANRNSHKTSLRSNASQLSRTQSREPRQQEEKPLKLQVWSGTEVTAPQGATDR

Thromboxane A2 receptor = biological target: T3, Thromboxane A2 receptor (Homo sapiens, UniProt P21731)
T3 sequence (P21731 whole entry): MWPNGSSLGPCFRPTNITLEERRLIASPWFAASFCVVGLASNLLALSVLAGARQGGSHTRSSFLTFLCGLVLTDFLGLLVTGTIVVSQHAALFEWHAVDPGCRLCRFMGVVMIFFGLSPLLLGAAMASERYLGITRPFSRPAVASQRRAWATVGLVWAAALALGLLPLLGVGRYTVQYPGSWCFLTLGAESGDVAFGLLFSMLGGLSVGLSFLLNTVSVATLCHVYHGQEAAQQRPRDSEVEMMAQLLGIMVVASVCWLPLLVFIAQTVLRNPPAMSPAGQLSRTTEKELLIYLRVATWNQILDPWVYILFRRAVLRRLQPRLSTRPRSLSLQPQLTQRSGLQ

[3] = biological target: T4, 5-hydroxytryptamine receptor 2C (Homo sapiens, UniProt P28335)
T4 sequence (P28335 whole entry): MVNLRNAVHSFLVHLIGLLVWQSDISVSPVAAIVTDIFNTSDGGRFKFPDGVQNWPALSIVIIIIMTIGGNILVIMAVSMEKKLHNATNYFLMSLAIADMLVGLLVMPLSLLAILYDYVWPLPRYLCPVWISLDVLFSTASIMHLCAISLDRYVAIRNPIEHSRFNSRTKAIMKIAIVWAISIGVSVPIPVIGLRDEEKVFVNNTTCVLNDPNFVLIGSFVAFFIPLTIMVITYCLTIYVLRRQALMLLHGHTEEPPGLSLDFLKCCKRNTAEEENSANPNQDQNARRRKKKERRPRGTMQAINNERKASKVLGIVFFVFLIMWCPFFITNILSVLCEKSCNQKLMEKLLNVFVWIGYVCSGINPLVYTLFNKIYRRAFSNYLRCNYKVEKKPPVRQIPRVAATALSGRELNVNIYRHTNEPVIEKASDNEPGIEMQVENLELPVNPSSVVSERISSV

[4] = biological target: Glutamate receptor ionotropic, NMDA 1 (Rattus norvegicus, UniProt P35439)
[5] = biological target: Voltage-gated inwardly rectifying potassium channel KCNH2 (Homo sapiens, UniProt Q12809); assay type: functional
Sequence of Voltage-gated inwardly rectifying potassium channel KCNH2 (Q12809 whole entry): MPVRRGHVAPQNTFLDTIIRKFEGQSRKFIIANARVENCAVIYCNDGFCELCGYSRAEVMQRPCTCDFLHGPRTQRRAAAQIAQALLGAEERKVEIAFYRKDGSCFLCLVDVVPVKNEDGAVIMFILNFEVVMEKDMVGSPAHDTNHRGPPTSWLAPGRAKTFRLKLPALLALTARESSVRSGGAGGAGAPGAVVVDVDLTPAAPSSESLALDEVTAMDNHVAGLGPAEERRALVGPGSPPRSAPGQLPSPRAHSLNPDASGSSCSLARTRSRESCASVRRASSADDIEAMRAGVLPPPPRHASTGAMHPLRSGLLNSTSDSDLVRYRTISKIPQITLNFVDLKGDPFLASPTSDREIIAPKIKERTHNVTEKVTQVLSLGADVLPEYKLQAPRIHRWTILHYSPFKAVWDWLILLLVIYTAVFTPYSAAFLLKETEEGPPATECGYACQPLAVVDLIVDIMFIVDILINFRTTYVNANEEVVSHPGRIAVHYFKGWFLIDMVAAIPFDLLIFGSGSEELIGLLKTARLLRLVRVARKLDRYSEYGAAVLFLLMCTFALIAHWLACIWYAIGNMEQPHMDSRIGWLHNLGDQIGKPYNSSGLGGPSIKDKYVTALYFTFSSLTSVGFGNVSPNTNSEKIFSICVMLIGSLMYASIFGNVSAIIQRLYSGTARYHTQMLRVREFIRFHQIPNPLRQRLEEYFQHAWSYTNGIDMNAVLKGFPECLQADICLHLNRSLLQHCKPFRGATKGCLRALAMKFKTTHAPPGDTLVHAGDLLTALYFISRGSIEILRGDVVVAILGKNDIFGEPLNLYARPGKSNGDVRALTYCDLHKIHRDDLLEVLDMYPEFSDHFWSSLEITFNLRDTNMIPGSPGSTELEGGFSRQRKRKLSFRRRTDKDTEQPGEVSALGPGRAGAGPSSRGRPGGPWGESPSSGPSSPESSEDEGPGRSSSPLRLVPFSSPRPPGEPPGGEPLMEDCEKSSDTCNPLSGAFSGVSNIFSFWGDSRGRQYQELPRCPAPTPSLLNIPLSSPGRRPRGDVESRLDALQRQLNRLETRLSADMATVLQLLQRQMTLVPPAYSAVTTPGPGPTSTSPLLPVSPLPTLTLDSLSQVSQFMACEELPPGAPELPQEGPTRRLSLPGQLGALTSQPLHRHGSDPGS

Vasopressin V2 receptor = Vasopressin V2 receptor (Homo sapiens, UniProt P30518)
Sequence of Vasopressin V2 receptor (P30518 whole entry): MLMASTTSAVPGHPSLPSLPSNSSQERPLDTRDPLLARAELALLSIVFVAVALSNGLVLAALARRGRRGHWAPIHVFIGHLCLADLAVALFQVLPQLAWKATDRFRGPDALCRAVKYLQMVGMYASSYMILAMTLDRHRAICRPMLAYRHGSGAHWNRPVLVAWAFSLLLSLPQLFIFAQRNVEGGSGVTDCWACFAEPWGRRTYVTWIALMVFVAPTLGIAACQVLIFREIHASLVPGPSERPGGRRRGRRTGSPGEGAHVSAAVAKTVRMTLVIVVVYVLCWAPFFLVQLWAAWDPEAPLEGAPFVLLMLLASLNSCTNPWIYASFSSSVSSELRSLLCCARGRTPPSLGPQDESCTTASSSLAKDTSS

Vasopressin V1a receptor = Vasopressin V1a receptor (Homo sapiens, UniProt P37288)
Sequence of Vasopressin V1a receptor (P37288 whole entry): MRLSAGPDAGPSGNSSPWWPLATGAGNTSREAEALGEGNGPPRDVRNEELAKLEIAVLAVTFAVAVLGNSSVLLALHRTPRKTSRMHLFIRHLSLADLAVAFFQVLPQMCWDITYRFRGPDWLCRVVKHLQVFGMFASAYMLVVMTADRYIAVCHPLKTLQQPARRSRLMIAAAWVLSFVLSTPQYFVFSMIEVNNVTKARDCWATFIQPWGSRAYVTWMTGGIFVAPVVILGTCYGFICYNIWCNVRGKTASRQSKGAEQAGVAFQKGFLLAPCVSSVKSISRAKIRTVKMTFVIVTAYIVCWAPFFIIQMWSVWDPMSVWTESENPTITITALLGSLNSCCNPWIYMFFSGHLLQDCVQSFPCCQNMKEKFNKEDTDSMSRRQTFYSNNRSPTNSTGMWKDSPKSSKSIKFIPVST
Also: assay procedure not described here.

| SMILES | AC50 [1] [µM] | AC50 [2] [µM] | AC50 (Histamine H2 receptor) [µM] | AC50 (Thromboxane A2 receptor) [µM] | AC50 [3] [µM] | AC50 [4] [µM] | AC50 [5] [µM] | AC50 (Vasopressin V2 receptor) [µM] | AC50 (Vasopressin V1a receptor) [µM] |
| --- | --- | --- | --- | --- | --- | --- | --- | --- | --- |
| CC(C)(C)C(=O)OCC(=O)[C@H]1CC[C@H]2[C@@H]3CCC4=CC(=O)CC[C@]4(C)[C@H]3CC[C@]12C [DESOXYCORTICOSTERONE PIVALATE] | > 10 | > 10 | > 10 | > 10 | > 30 | > 10 | > 30 | > 10 | > 10 |
| [H]/N=C(/N)N/C(=N/[H])NCCc1ccccc1 [PHENFORMIN] | > 30 | > 30 | > 30 | > 30 | > 30 | 2.32 | > 30 | > 30 | > 30 |
| CC(C)NCC(O)c1ccc(O)c(O)c1 (configuration not stated) [ISOPROTERENOL] | > 30 | > 30 | > 10 | > 30 | > 30 | > 10 | > 30 | > 30 | > 10 |
| C=CCNc1nc(NCC=C)nc(N2CCN(C(c3ccc(F)cc3)c3ccc(F)cc3)CC2)n1 [ALMITRINE] | > 30 | > 30 | > 30 | > 30 | > 30 | > 30 | > 30 | > 30 | > 30 |
| CC(C)[C@H](N)C(=O)OCC(CO)OCn1cnc2c(=O)nc(N)[nH]c21 (some centres not stated) [VALGANCICLOVIR] | > 30 | > 30 | > 30 | > 30 | > 30 | > 30 | > 30 | > 30 | > 30 |
| CCC1(c2ccccc2)CCC(=O)NC1=O (configuration not stated) [GLUTETHIMIDE] | > 10 | > 10 | > 10 | > 10 | > 30 | > 10 | > 30 | > 10 | > 10 |
| COc1cc(N)c(Cl)cc1C(=O)NC1CCN(Cc2ccccc2)CC1 [CLEBOPRIDE] | 14 | > 30 | > 30 | > 30 | 13 | > 30 | 1.4 | > 30 | > 30 |
| Nc1ncn([C@H]2C[C@H](O)[C@@H](CO)O2)c(=O)n1 [DECITABINE] | > 30 | > 30 | > 30 | > 30 | > 30 | > 30 | > 30 | > 30 | > 30 |
| Cc1cccc(N2CC(CO)OC2=O)c1 (configuration not stated) [TOLOXATONE] | > 30 | > 30 | > 30 | > 30 | > 30 | > 30 | > 30 | > 30 | > 30 |
| CN1CCC(=C2c3ccccc3CCc3cccnc32)CC1 [AZATADINE] | > 30 | > 30 | > 10 | > 30 | 3.1 | > 10 | 24.6 | > 30 | > 30 |
| Cc1cc(C(C)(C)C)cc(C)c1CC1=NCCN1 [XYLOMETAZOLINE] | > 30 | > 30 | > 30 | > 30 | 10 | > 30 | 5.2 | > 30 | > 30 |
| C#C[C@]1(OC(C)=O)CC[C@H]2[C@@H]3CCC4=C/C(=N/O)CC[C@@H]4[C@H]3CC[C@@]21CC [NORGESTIMATE] | 7.8 | > 30 | > 30 | > 30 | > 30 | > 30 | > 30 | > 30 | > 30 |
| COCC1=C(C(=O)O)N2C(=O)[C@@H](NC(=O)/C(=N\OC)c3csc(N)n3)[C@H]2SC1 [CEFPODOXIME] | > 30 | > 30 | > 30 | > 30 | 0.12 | > 30 | > 30 | > 30 | > 30 |
